Experimental data reported in PMC12508063, “Chloroindazole based estrogen receptor β ligands with favorable pharmacokinetics promote functional remyelination and visual recovery” (Scientific Reports, 2025).
Like-named read-outs stand apart in the source and are kept apart here.

Assays:
CYP1A2 = CYP1A2 (Homo sapiens, UniProt P05177); assay: CYP inhibition; details: test compounds at 10 μM; substrate Phenacetin
[1] = Plasma protein binding (mouse)
[2] = Hepatocyte stability (human)
[3] = Oral PK of K102 at 40 mg/kg in female rats; format: in vivo, Sprague–Dawley rat; details: female rat, PO 40 mg/kg, mean
EAE mice = assay: Optical coherence tomography (RNFL thickness) in EAE; format: in vivo, mouse; details: vs EAE + V
Procedure: Optical coherence tomography, electroretinograms and visual evoked potentials: OCT was acquired using the spectral domain‐OCT (R2200 840 nm HHP; Leica, Deerfield, IL) at peak EAE disease according to previously published methods[23],[28]. Each image was taken 3 times and averaged. Automatic segmentation of retinal layers was performed using Bioptigen Diver 3.0 software (Leica Microsystems, Deerfield, IL). ERG and VEPs were measured using the HMsERG200 ([…], Henderson, NV) as previously described[23],[28]. Animals were dark adapted for a minimum of 5 h prior to recording. During acquisition, animals were anesthetized with continuous 2% isoflurane. Traces were averaged and filtered for 60 Hz noise and a low-pass filter. MATLAB was used to adjust baselines and smoothed prior to measuring ERG and VEP amplitudes and latencies.
Optical coherence tomography: OCT was acquired using the spectral domain‐OCT (R2200 840 nm HHP; Leica, Deerfield, IL) at peak EAE disease according to previously published methods(8, 9). Each image was taken 3 times and averaged. Automatic segmentation of retinal layers was performed using Bioptigen Diver 3.0 software (Leica Microsystems, Deerfield, IL).

[4] = Plasma protein binding (human)
[5] = Liver microsome stability (mouse)
[6] = test system: Human iPSC-derived OPCs (Tempo's iOligo); assay: Differentiation of human iPSC-derived OPCs (Tempo iOligo), MBP; format: cell-based; details: human OLs, 10 nM, 18 days
Source text: Mouse and Human primary cell cultures: Primary OPC/OL culture were isolated from the cortices of postnatal day 0–1 C57BL/6J mice of both sexes, using established protocols[11],[20],[21]. Mouse OPC and Neuronal Co-cultures: Primary neuronal cultures were established in Neurobasal medium with B27 and plated on poly-L-lysine-coated coverslips. After 12 days, OPCs were isolated, counted, and added to neuronal cultures and media was replaced with neuronal and proliferation media for 3 days, then switched to maturation media that maintained both neurons and OLs. Human iPSC-derived OPCs (Tempo’s iOligo™) were expanded, cryopreserved, and later plated on Matrigel-coated coverslips. After 3 days in growth medium, cells were treated for 3 weeks with T3 containing maturation medium. Differentiation into myelin-producing OLs was assessed using O4 (OL surface marker on pre-OLs) and myelin basic protein (MBP) immunohistochemistry. In all conditions compounds or vehicle were added to culture during differentiation for either 5 days (mouse) or 18 days (human). […]
Tempo’s iOligo (OPC) cells form branched bipolar and tripolar structures when cultured as a monolayer and express OL markers, including O4, NG2, and CNPase. […] After plating human OPCs and allowing two days of growth in expansion media, the culture medium was switched to T3 + maturation medium and evaluated for MBP expression (Fig. 8i). […]

[7] = hepatocytes
[8] = microsomes
[9] = plasma
[10] = test system: 1A2, 2B6, 2C9, 2C19, 2D6, and 3A4M/T; assay: CYP inhibition panel summary; format: in vitro ADME, human; details: 10 µM
[11] = microsomes; remark: listed apart in the source

CYP1A2, sequence (P05177 whole entry): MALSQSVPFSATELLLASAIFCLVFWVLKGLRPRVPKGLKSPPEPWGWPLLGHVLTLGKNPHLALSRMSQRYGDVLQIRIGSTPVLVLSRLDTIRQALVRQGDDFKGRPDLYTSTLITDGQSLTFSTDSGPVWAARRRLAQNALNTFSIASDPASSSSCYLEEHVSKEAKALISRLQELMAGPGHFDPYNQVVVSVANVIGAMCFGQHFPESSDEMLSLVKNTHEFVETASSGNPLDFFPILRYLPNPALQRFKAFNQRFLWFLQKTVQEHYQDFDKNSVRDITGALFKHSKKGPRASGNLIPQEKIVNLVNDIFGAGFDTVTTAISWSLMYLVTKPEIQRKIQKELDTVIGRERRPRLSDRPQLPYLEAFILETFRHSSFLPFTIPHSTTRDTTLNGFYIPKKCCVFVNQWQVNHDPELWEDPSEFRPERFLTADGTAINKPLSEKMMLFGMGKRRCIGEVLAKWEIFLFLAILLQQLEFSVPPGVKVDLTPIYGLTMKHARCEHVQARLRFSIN

## Cc1cc(O)ccc1-n1nc2ccc(O)cc2c1Cl [Compound K102, IndCl-o-Me]
CYP1A2
  CYP Inhibition Percentage CYP1A2: 26.19%
[1]
  Protein Binding (% Bound) Mouse: 96.81%
[2]; 15 min
  Hepatocyte Stability (Human) % Remaining (15 min): 60.05%
[2]; human, hepatocytes
  Hepatocyte Stability (Human) CLint: 72.12 µL/min/mg protein
[3]
  AUCInf/D: 235.1 kg·ng·h/mL/mg
  AUClast: 9403 ng·h/mL
  Cmax: 1657 ng/mL
  Tmax: 15 min
EAE mice
  RNFL thickness (OCT): prevented the significant reduction
[4]
  Protein Binding (% Bound) Human: 97.08%
[5]; 30 min
  Liver Microsome Stability (Mouse) % Remaining (30 min): 30.18%
[5]; mouse, microsomes
  Liver Microsome Stability (Mouse) CLint: 40.80 µL/min/mg protein
  Liver Microsome Stability (Mouse) t1/2: 17.12 min
[6]
  MBP levels vs vehicle control: significantly increased

## Oc1ccc(-n2nc3ccc(O)cc3c2Cl)c(O)c1 [Compound K110, IndCl-o-OH]
[7]
  Hepatocyte Stability (Human) CLint: 12.69 µL/min/mg protein
[7]; 0.25 h
  Hepatocyte Stability (Human) % Remaining (15 min): 87.14%
[8]
  Liver Microsome Stability (Mouse) CLint: 35.28 µL/min/mg protein
  Liver Microsome Stability (Mouse) t1/2: 20.06 min
[8]; 0.5 h
  Liver Microsome Stability (Mouse) % Remaining (30 min): 35.72%
[9]
  Protein Binding (% Bound) Mouse: 91.79%
[10]
  CYP inhibition, all other isoforms of the panel: < 50%
[11]
  Liver Microsome Stability (Human) CLint: 13.64 µL/min/mg protein
[11]; 0.5 h
  Liver Microsome Stability (Human) % Remaining (30 min): 66.88%
